{
  "source": "patent US9907791B2",
  "about": "“Ron inhibitors for use in preventing and treating bone loss” (UNIVERSITY OF UTAH RESEARCH FOUNDATION, priority 2014, dated 2018)",
  "key": {"[1]": {"test": "Ovariectomy-induced bone loss (osteoporosis study)", "type": "in vivo", "settings": "WT OVX mice, treatment from 1 day post-ovariectomy, analysis at 28 days", "text": "Representative samples were imaged by micro-computed tomography (μCT, Skyscan) with volume rendering snapshots of the tibia. For the osteoporosis study, representative samples were imaged and presented as volume rendering snapshots of the axial view of the tibial metaphysis region. For bone mineral density (BMD) measurements, the right tibia was removed and fixed in 10% NBF overnight. The tibia were then scanned by dual-energy X-ray absorptiometry (DXA) using a Norland pDEXA densitometer (Norland Medical Systems, White Plains, N.Y.). A region including the primary and secondary spongiosa was used to determine the BMD of the tibia. […] For the osteoporosis study, mice were treated beginning on the day after ovary removal. The treatment regimen for OSI-296 was 200 mg/kg every other day by oral gavage. ASLAN002 was administered at 50 mg/kg every other day by oral gavage. Treatment continued until the time of sacrifice at 28 days. […] To investigate the role of the MSP/RON pathway in bone loss due to post-menopausal osteoporosis, ovariectomies were performed in WT and RonTK−/− mice and bone loss was analyzed by dual-energy X-ray absorptiometry (DXA) and bone histomorphometry 28 days later. […] WT OVX mice were treated with ASLAN002 beginning 1 day post-ovariectomy. Mice were sacrificed 28 days post-ovariectomy for analysis."}, "c-Src": {"test_system": "c-Src", "test": "Western blot of osteoclast lysates, phospho-Src", "type": "cell-based, mice", "settings": "WT osteoclasts with MSP", "method": "Cells were serum starved (0.5% FBS) for 3 hours prior to lysate collection. Inhibitors were added 1 hour prior to lysis and MSP was added 15 min prior to lysis when indicated. Cells were washed with 1×PBS and harvested in lysis buffer (25 mM Tris-HCl, pH 7.5, 0.42 M NaCl, 1.5 mM MgCl2, 0.5 mM EDTA, 1 mM DTT, 25% sucrose, and 0.1% Triton X-100) plus 100× protease arrest (Bioscience, Bozeman, Mont.) and 100× orthovanadate. Primary antibodies used for immunoblotting include: anti-MSP (Santa Cruz, sc-6090, Dallas, Tex.) at a 1:250 dilution, anti-pan Akt (Cell Signaling, #4691S, Beverly, Mass.) at a 1:1000 dilution, anti-pan Erk (Cell Signaling, #4695, Beverly, Mass.) at a 1:1000 dilution, anti-phospho Akt (Cell Signaling, #9271 L, Beverly, Mass.) at a 1:500 dilution, anti-phospho Erk (Cell Signaling, #4370S, Beverly, Mass.) at a 1:500 dilution, anti-Src (Cell Signaling, #2110, Beverly, Mass.) at a 1:500 dilution, and anti-phospho Src (Y416) (Cell Signaling, #2113, Beverly, Mass.) at a 1:500 dilution. The secondary antibodies used were HRP-conjugated anti-goat IgG (Santa Cruz, Dallas, Tex.) and anti-rabbit IgG (Santa Cruz, Dallas, Tex.). Chemiluminescent signals were detected using Immun-Star HRP (BioRad, Hercules, Calif.)."}, "[2]": {"test": "In vivo bone labeling and histomorphometry", "set-up": "species or system mice", "settings": "normal, uninjected animals", "method": "To label bones, mice were intraperitoneally injected with 20 mg/kg of calcein (Sigma-Aldrich, St. Louis, Mo.) or 30 mg/kg of Alizarin Complexone (Sigma-Aldrich, St. Louis, Mo.) in a 2% sodium bicarbonate solution. Mice 6 to 8 months of age were labeled 8 days and 2 days prior to euthanasia, respectively. Tibia were fixed in 70% ethanol, embedded in methylmethacrylate and sectioned. Bone histomorphometry on H and E sections and bone labeled sections were performed as previously described (Parfitt, et al. Report of the ASBMR Histomorphometry Nomenclature Committee. J. Bone Miner. Res. 1987, 2, 595-610). Analysis of bone volume (BV/TV), and trabecular spacing (Tb. Sp.) were performed on the metaphyseal region of tibia sections stained with H and E. Bone formation rate (BFR) per bone surface (BS) and mineral apposition rate (MAR) of trabeculae were calculated within the metaphyseal region of the tibia. For all histomorphometry, three sections per mouse with 4 to 5 mice per group were analyzed. Analysis was performed using Bioquant Osteo software (Bioquant Image Analysis Corporation, Nashville, Tenn.)."}, "[3]": {"test": "Human plasma CTX levels, Phase I patients", "type": "in vivo", "from_the_text": "All samples were de-identified and the experiments were approved by the University of Utah Institutional Review Board. Plasma samples were submitted to ARUP for clinical testing of CTX. For BSAP, the Human Bone Panel I capture plate with the Human Alkaline Phosphatase detection kit was utilized (Meso Scale Discovery, Rockville, Md.; […]-2) to measure BSAP levels in undiluted plasma samples per the manufacturer's protocol. ASLAN002 is currently in Phase I testing as an anti-cancer agent (NCT01721148). Regardless of cancer diagnosis, and even in the absence of bone metastasis, RON inhibition might affect normal bone turnover, especially in postmenopausal women due to their high rate of bone loss. Plasma samples from early cohorts of Phase I patients were examined for evidence of bone turnover at baseline and after treatment with ASLAN002, using a standard clinical test to detect cleaved bone-derived collagen in plasma (beta-cross-linked C-telopeptide, or CTX). […] Shown in FIG. 15A is quantification of the percent change in plasma CTX levels (compared to baseline prior to drug treatment) in blood plasma of patients receiving ASLAN002 in the Phase I clinical trial. Most patients received ASLAN002 for 28 days; the exceptions in duration are noted (*15 days and ^84 days). Dark bars represent males, and light bars represent females. […] In this analysis, all subjects except one were >50 years old; women older than 50 were expected to have the greatest amount of physiologic bone turnover due to menopause. None of the patients analyzed were treated concurrently with anti-osteoporotic agents. […] Shown in FIG. 15B is quantification of the percent change in BSAP levels (compared to baseline) in blood plasma of patients receiving ASLAN002. The patients are the same as those shown in FIG. 15A, except those receiving only 15 days of ASLAN002 were not tested for BSAP. Dark bars represent males, and light bars represent females. Note that these patients were not selected based on a diagnosis of bone metastasis; rather, markers of bone turnover in patients with various cancer diagnoses who participated in the Phase I trial of ASLAN002 were simply assessed."}, "RON": {"biological_target": "RON (Homo sapiens, UniProt Q04912)", "sequence (Q04912 25-1400)": "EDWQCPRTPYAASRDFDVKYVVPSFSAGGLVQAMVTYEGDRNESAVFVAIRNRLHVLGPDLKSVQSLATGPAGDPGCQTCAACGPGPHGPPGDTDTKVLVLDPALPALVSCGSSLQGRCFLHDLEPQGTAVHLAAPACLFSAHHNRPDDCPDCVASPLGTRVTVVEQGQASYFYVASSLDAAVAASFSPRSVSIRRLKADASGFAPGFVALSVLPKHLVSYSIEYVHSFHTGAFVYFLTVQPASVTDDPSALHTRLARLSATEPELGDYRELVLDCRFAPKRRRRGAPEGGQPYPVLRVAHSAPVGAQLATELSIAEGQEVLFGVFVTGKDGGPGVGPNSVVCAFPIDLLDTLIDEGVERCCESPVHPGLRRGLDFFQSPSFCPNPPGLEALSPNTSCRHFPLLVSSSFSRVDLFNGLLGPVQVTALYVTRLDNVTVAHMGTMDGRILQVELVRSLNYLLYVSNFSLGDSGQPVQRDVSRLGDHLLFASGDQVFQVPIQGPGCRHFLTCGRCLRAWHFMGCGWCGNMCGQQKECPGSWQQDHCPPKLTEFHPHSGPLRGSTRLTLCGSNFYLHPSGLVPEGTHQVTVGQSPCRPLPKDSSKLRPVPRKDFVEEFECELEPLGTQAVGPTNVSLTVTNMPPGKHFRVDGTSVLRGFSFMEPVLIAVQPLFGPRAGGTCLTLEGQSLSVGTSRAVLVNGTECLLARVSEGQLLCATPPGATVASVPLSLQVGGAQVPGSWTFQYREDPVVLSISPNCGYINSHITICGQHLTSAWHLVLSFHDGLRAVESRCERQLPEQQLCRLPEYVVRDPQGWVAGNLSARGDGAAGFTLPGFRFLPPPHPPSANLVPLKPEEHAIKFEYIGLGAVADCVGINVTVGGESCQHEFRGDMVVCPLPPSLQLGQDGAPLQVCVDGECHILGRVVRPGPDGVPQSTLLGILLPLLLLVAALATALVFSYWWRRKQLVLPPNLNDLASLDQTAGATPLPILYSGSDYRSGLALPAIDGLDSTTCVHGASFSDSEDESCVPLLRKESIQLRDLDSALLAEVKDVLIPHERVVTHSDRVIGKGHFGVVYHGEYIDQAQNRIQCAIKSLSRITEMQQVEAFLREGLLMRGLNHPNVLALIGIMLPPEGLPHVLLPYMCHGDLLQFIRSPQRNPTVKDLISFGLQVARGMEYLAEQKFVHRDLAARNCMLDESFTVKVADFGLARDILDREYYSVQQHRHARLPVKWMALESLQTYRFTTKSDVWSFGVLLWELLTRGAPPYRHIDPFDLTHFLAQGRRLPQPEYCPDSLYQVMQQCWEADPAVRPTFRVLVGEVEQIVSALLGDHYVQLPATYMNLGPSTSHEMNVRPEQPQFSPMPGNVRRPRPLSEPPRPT", "settings": "from the cited IC50 values; cited from earlier work"}, "[4]": {"test": "Human plasma BSAP levels, Phase I patients", "type": "in vivo", "settings": "change compared to baseline", "from_the_text": "All samples were de-identified and the experiments were approved by the University of Utah Institutional Review Board. Plasma samples were submitted to ARUP for clinical testing of CTX. For BSAP, the Human Bone Panel I capture plate with the Human Alkaline Phosphatase detection kit was utilized (Meso Scale Discovery, Rockville, Md.; […]-2) to measure BSAP levels in undiluted plasma samples per the manufacturer's protocol. ASLAN002 is currently in Phase I testing as an anti-cancer agent (NCT01721148). Regardless of cancer diagnosis, and even in the absence of bone metastasis, RON inhibition might affect normal bone turnover, especially in postmenopausal women due to their high rate of bone loss. […] Shown in FIG. 15A is quantification of the percent change in plasma CTX levels (compared to baseline prior to drug treatment) in blood plasma of patients receiving ASLAN002 in the Phase I clinical trial. […] None of the patients analyzed were treated concurrently with anti-osteoporotic agents. […] Shown in FIG. 15B is quantification of the percent change in BSAP levels (compared to baseline) in blood plasma of patients receiving ASLAN002. […] Note that these patients were not selected based on a diagnosis of bone metastasis; rather, markers of bone turnover in patients with various cancer diagnoses who participated in the Phase I trial of ASLAN002 were simply assessed."}},
  "data": [
    {"smiles": "CCOc1ccn(-c2ccc(F)cc2)c(=O)c1C(=O)Nc1ccc(Oc2ccnc(N)c2Cl)c(F)c1", "note": "[ASLAN002]", "values": [
      {"measurement": "bone loss after ovary removal", "setting": "[1]", "value": "completely prevented bone loss"},
      {"measurement": "MSP-increased Src phosphorylation", "setting": "c-Src", "value": "blocked"},
      {"measurement": "bone formation rate per total bone surface", "setting": "[2]", "value": "not significant"},
      {"measurement": "mineral apposition rate", "setting": "[2]", "value": "not significant"},
      {"measurement": "women showing ≧25% decreases in CTX", "setting": "[3]; 7/10 women", "value": 70, "unit": "%"},
      {"measurement": "patients exhibiting decreased CTX levels", "setting": "[3]; 11/18 Phase I patients, most 28 days of treatment", "value": 61, "unit": "%"},
      {"measurement": "men showing ≧25% decreases in CTX", "setting": "[3]; number of men out of all men", "value": "0/8"},
      {"measurement": "patients with decreased CTX that had ≧25% reduction", "setting": "[3]; of the patients with decreased CTX, Mayo clinic response guideline", "value": 64, "unit": "%"},
      {"measurement": "selectivity between RON and Met", "setting": "RON", "value": "more selective for RON"},
      {"measurement": "plasma bone-specific alkaline phosphatase (BSAP) levels", "setting": "[4]", "value": "increased plasma BSAP"}
    ]}
  ]
}
